Values quoted from earlier work in patent publication US8039023B1, “Composition for relief of menstrual cramps and muscle cramps” (priority 2009, dated 2011).

Tested on: pain and muscle cramping symptoms
Settings: prior art, various brands, typical

| Structure (SMILES) | time after ingestion to reduced discomfort from pain and muscle cramping symptoms |
| --- | --- |
| CC(=O)Nc1ccc(O)cc1 [acetaminophen] | twenty to forty |
| CC(C)Cc1ccc(C(C)C(=O)O)cc1 (stereo not drawn) [ibuprofen] | twenty to forty |
| CC(=O)Oc1ccccc1C(=O)O [aspirin] | twenty to forty |
